Experimental data from patent US20260001898A1, “Heteroaryl compounds as inhibitors of TYK2/JAK1, composition and application thereof” (Accro Bioscience (HK) Limited, priority 2022, published 2026).

Assays:
Assay type in all cases: cell-based
[1] = system: JAK1/JAK2 pathway; test: Western blot p-STAT1/STAT1 in IFN-γ-stimulated HT-29 cells; details: IFN-γ 100 ng/mL
Procedure: HT-29 cells were digested by trypsin and suspended in Dulbecco's Modified Eagle Medium (DMEM) and counted. The tested compounds were added into the 6 well plates (400 000/per well). After 2 hours, IFN-γ (100 ng/mL) was added to stimulate cells for 30 minutes. The cells were collected and lysed with protein lysate. The protein was quantitatively tested by BCA kit. Finally, p-STAT1/STAT1 and internal reference protein β-actin were detected by Western blot.

[2] = system: IFNα induced TYK2/JAK1 mediated STAT activation; test: Luciferase assay in L929 ISRE cells stimulated with IFN-α; details: Mus musculus, IFN-α 100 ng/mL; for inhibition at 0.05 µM: 50 nM compound, read-out: Inhibitory activity % (50 nM); for inhibition at 0.2 µM: 200 nM compound, read-out: Inhibitory activity % (200 nM); for inhibition at 1 µM: 1000 nM compound, read-out: Inhibitory activity % (1000 nM)
Procedure: • 1. L929 ISRE cells (5000 cells/well) were seeded on 96-well plates and incubated overnight at room temperature-; • 2. The cells were pretreated by adding different concentrations (10 nM, 50 nM, 100 nM, 200 nM or 1000 nM) of the test compounds for 2 hours; • 3. Added IFN-α (100 ng/mL) to stimulate cells for 6 hours; • 4. Removed the upper medium, add PBS (100 μL) and washed, then removed PBS; • 5. Added PLB lysis solution (50 μL) to each well, shook the well for 15 minutes; • 6. Transferred PLB lysis solution (30 μL) to a new 96-well whiteboard, added LAR II reagent (LAR II), then quickly read the 450 nm OD value with a plate washer; • 7. Added Stop & Glo reagent (30 μL), then read the 450 nm OD value using the plate washer. • 8. The final result was the OD value in step 6/OD value in step 7.

[3] = system: JAK2/JAK2 pathway; test: Western blot p-STAT3/STAT3 in TPO-stimulated HEL cells; details: TPO 100 ng/mL
Procedure: HEL cells were digested by trypsin, re-suspended in 1640 medium and counted. The compounds to be measured were added to 6 well plates (1 million/per well) for 2 hours, and then thrombopoietin (TPO)(final concentration: 100 ng/mL) was added to stimulate cells for 30 minutes. The cells were collected and lysed with protein lysate. The protein was quantitatively tested by bicinchoninic acid (BCA) kit. Finally, p-STAT3/STAT3 and internal reference protein β-actin were detected by Western blot.

Row | SMILES | effect on downstream STAT1 phosphorylation induced by IFN-γ (JAK1/JAK2 pathway) [1] | inhibition at 0.05 µM [2] [%] | inhibition at 0.2 µM [2] [%] | inhibition at 1 µM [2] [%] | effect on TPO-induced downstream STAT3 phosphorylation (JAK2/JAK2 pathway) [3]
1 | COc1c(Nc2cc(NC(=O)C3CC3)ncc2C(N)=O)cccc1-c1cc(P(=O)(C2CC2)C2CC2)n(C)n1 [Compound A2, 6-(cyclopropanecarboxamido)-4-((3-(5-(dicyclopropylphosphoryl)-1-methyl-1H-pyrazol-3-yl)-2-methoxyphenyl)amino)nicotinamide] | inhibited JAK1/JAK2 pathway in a concentration-dependent manner | 26 | 57 | 94 | 
2 | COc1c(Nc2cc(NC(=O)C3CC3)ncc2C(N)=O)cccc1-c1ccc(P(C)(C)=O)cc1 [Compound A61, 6-(cyclopropanecarboxamido)-4-((4′-(dimethylphosphoryl)-2-methoxy-[1,1′-biphenyl]-3-yl)amino)nicotinamide] |  | 8 | 23 | 59 | 
3 | COc1c(Nc2cc(NC(=O)C3CC3)ncc2C(N)=O)cccc1-c1ccc(P(C)(C)=O)nc1 [Compound A62] |  | 3 | 5 | 56 | 
4 | COc1c(Nc2cc(NC(=O)C3CC3)ncc2C(N)=O)cccc1-c1cnc(P(C)(C)=O)cn1 [Compound A63, 6-(cyclopropanecarboxamido)-4-((3-(5-(dimethylphosphoryl)pyrazin-2-yl)-2-methoxyphenyl)amino)nicotinamide] |  | 33 | 43 | 75 | 
5 | COc1cccnc1Nc1cc(Nc2cccc(-c3cc(P(=O)(C4CC4)C4CC4)n(C)n3)c2OC)c(C(N)=O)nn1 [Compound A65] |  | 36 | 43 | 93 | 
6 | COc1ccnc(Nc2cc(Nc3cccc(-c4cc(P(=O)(C5CC5)C5CC5)n(C)n4)c3OC)c(C(N)=O)nn2)c1 [Compound A66] |  | 59 | 82 | 96 | 
7 | COc1cccc(Nc2cc(Nc3cccc(-c4cc(P(=O)(C5CC5)C5CC5)n(C)n4)c3OC)c(C(N)=O)nn2)n1 [Compound A67] |  | 88 | 95 | 95 | 
8 | COc1cc(P(=O)(C2CC2)C2CC2)ccc1Nc1cc(Nc2cc(C)ccn2)nnc1C(N)=O [Compound B1, 4-((4-(dicyclopropylphosphoryl)-2-methoxyphenyl)amino)-6-((4-methylpyridin-2-yl)amino)pyridazine-3-carboxamide] |  |  |  | 0 | 
9 | CCP(=O)(CC)c1ccc(Nc2cc(NC(=O)C3CC3)ncc2C(N)=O)c(OC)c1 [Compound B3, 6-(cyclopropanecarboxamido)-4-((4-(diethylphosphoryl)-2-methoxyphenyl)amino)nicotinamide] |  |  |  | 19 | 
10 | COc1cc(P(=O)(C2CC2)C2CC2)ccc1Nc1cc(Nc2ccccn2)nnc1C(N)=O [Compound B4] |  |  |  | 8 | 
11 | COc1cc(P(=O)(C2CC2)C2CC2)ccc1Nc1cc(NC(=O)C2CC2)nnc1C(N)=O [Compound B5] |  |  |  | 0 | 
12 | COc1cc(P(=O)(C2CC2)C2CC2)ccc1Nc1cc(Nc2ccn(C)n2)nnc1C(N)=O [Compound B7] |  |  |  | 0 | 
13 | N#CC[C@H](C1CCCC1)n1cc(-c2ncnc3[nH]ccc23)cn1 [Ruxolitinib, reference compound] | inhibited JAK1/JAK2 pathway in a concentration-dependent manner |  |  |  | can inhibit the JAK2/JAK2 pathway
